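A five-concentration, 48-hour dose response in 96-well plates underlies each endpoint, interpolated linearly between surrounding concentrations. GI50 is the concentration that inhibits growth by half.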 Active and inactive are the calls of the source. No stated cut-off is given here; in the data, active = GI50 up to about 1.1 µM and inactive = higher.
Assays:
Assay in all cases: NCI tumour cell line growth inhibition, 48 h
UO-31 = tested on: UO-31
SW-620 = tested on: SW-620
SK-MEL-28 = tested on: SK-MEL-28
A498 = tested on: A498
KM-20L2 = tested on: KM-20L2
LOX IMVI = tested on: LOX IMVI
OVCAR-8 = tested on: OVCAR-8
Malme-3M = tested on: Malme-3M
DMS-273 = tested on: DMS-273
HCC 2998 = tested on: HCC 2998
SF-539 = tested on: SF-539
HCT-116 = tested on: HCT-116
IGROV-1 = tested on: IGROV-1
K562 = tested on: K562
TK-10 = tested on: TK-10
SK-MEL-5 = tested on: SK-MEL-5
ACHN = tested on: ACHN
HL-60 = tested on: HL-60
SR = tested on: SR
HT-29 = tested on: HT-29
OVCAR-5 = tested on: OVCAR-5
KM12 = tested on: KM12
RPMI-8226 = tested on: RPMI-8226
NCI-H226 = tested on: NCI-H226
XF498 = tested on: XF498
EKVX = tested on: EKVX
LXFL 529 = tested on: LXFL 529
786-0 = tested on: 786-0
UACC-257 = tested on: UACC-257
NCI-H460 = tested on: NCI-H460
U-251 = tested on: U-251
OVCAR-4 = tested on: OVCAR-4
COLO 205 = tested on: COLO 205
NCI-H522 = tested on: NCI-H522
A549 = tested on: A549
HCT-15 = tested on: HCT-15
M14 = tested on: M14
DMS-114 = tested on: DMS-114
SF-295 = tested on: SF-295
CCRF-CEM = tested on: CCRF-CEM
MOLT-4 = tested on: MOLT-4
NCI-H23 = tested on: NCI-H23
M19-MEL = tested on: M19-MEL
HOP-62 = tested on: HOP-62
OVCAR-3 = tested on: OVCAR-3
SNB-75 = tested on: SNB-75
SK-MEL-2 = tested on: SK-MEL-2
SK-OV-3 = tested on: SK-OV-3
SNB-19 = tested on: SNB-19
RXF 393 = tested on: RXF 393
SNB-78 = tested on: SNB-78
UACC-62 = tested on: UACC-62
SN12C = tested on: SN12C
DLD-1 = tested on: DLD-1
BT-549 = tested on: BT-549
MDA-MB-231 = tested on: MDA-MB-231
MDA-MB-435 = tested on: MDA-MB-435
CAKI-1 = tested on: CAKI-1
MDA-N = tested on: MDA-N
SF-268 = tested on: SF-268
PC-3 = tested on: PC-3
HOP-18 = tested on: HOP-18

Measured: GI50

Cc1ccc(C[P+]2(c3ccccc3)CCCCC2)cc1.[O-][Cl+3]([O-])([O-])[O-]
active: XF498 < 10 nM
51600 nM: HCT-15
inactive: UO-31 > 100000 nM | SW-620 33300 nM | SK-MEL-28 27700 nM | A498 > 100000 nM | KM-20L2 31200 nM | LOX IMVI 26200 nM | OVCAR-8 20600 nM | Malme-3M 25500 nM | DMS-273 35000 nM | HCC 2998 21000 nM | SF-539 25000 nM | HCT-116 1330 nM | IGROV-1 21300 nM | K562 34800 nM | TK-10 51200 nM | SK-MEL-5 10600 nM | ACHN 81700 nM | HL-60 10800 nM | SR 23100 nM | HT-29 21100 nM | OVCAR-5 55200 nM | KM12 28500 nM | RPMI-8226 7430 nM | NCI-H226 48100 nM | EKVX 43900 nM | LXFL 529 14000 nM | 786-0 47400 nM | UACC-257 6280 nM | NCI-H460 37600 nM | U-251 12500 nM | OVCAR-4 41400 nM | COLO 205 14000 nM | NCI-H522 16100 nM | A549 73500 nM | M14 25800 nM | DMS-114 14200 nM | SF-295 44200 nM | CCRF-CEM 38000 nM | MOLT-4 33000 nM | NCI-H23 24700 nM | M19-MEL 15700 nM | HOP-62 99800 nM | OVCAR-3 10000 nM | SNB-75 24400 nM | SK-MEL-2 30900 nM | SK-OV-3 60800 nM | SNB-19 32300 nM | RXF 393 > 100000 nM | SNB-78 25900 nM | UACC-62 23000 nM | SN12C 37600 nM | DLD-1 84300 nM

C=C(CC(NC(=O)c1ccc(C(CC)Cc2cnc3nc(N)nc(N)c3n2)cc1)C(=O)O)C(=O)O (stereo not given)
inactive: EKVX 52700 nM | SNB-78 27700 nM
active: UO-31 114 nM | SW-620 67.3 nM | SK-MEL-28 209 nM | A498 632 nM | KM-20L2 10 nM | LOX IMVI 4.36 nM | OVCAR-8 21.7 nM | Malme-3M 350 nM | DMS-273 0.644 nM | HCC 2998 239 nM | SF-539 3.19 nM | HCT-116 2.86 nM | IGROV-1 27.4 nM | K562 1.85 nM | TK-10 71.9 nM | BT-549 68.7 nM | MDA-MB-231 73.6 nM | SK-MEL-5 85.7 nM | ACHN 18.4 nM | HL-60 3.76 nM | MDA-MB-435 36.9 nM | SR 3.16 nM | HT-29 35.6 nM | OVCAR-5 653 nM | CAKI-1 169 nM | MDA-N 46.2 nM | RPMI-8226 29 nM | NCI-H226 87.5 nM | LXFL 529 2.39 nM | 786-0 1.74 nM | UACC-257 839 nM | NCI-H460 5.89 nM | U-251 152 nM | OVCAR-4 246 nM | COLO 205 79.6 nM | A549 5.67 nM | M14 20 nM | SF-295 1.13 nM | SF-268 73.1 nM | CCRF-CEM 10 nM | MOLT-4 13.6 nM | NCI-H23 244 nM | HOP-62 30 nM | OVCAR-3 190 nM | SNB-75 154 nM | SK-MEL-2 933 nM | SK-OV-3 214 nM | PC-3 52.7 nM | RXF 393 237 nM | UACC-62 163 nM | SN12C 24.4 nM | DLD-1 0.574 nM | HOP-18 42.9 nM
5.31 nM: HCT-15
